Laboratory results: patent US11186614B2, “Anti-HIV peptides” (priority 2016, dated 2021)
“Also recorded” adds a separate entry of the source.

B1: SUMO: Small Ubiquitin-like Modifier, a 12 kDa protein, fusion partner control (protein, UniProt Q12306 2-98, looked up)
Ubiquitin-like protein SMT3: SDSEVNQEAKPEVKPEVKPETHINLKVSDGSSEIFFKIKKTTPLRRLMEAFAKRQGKEMDSLRFLYDGIRIQADQTPEDLDMEDNDIIEAHREQIGG

Legend:
[1] = test system: BIV TAR; test: ELISA RNA binding of SUMO fusion proteins, BIV TAR; set-up: species or system Bovine immunodeficiency virus
Text: (§1) FIG. 6A-B depicts SUMO-(GGS)3-β2-β3 and graphs of ELISA data. (A) Diagram of the SUMO-(GGS)3-β2-β3 hairpin loop of TBP6.7 fused to SUMO.
(§2) Protein engineering was used to test whether an isolated β2-β3 hairpin of TBP6.7 (FIG. 2) retains TAR binding. Specifically, a fusion protein was created comprising the TBP6.7 β2-β3 hairpin (FIG. 6A) linked by flexible, soluble spacer (GGS)3 to SUMO (Small Ubiquitin-like Modifier), a 12 kDa protein that expresses well in E. coli and stabilizes a variety of structurally diverse fusion proteins.^114 The affinity for TAR was then measured by ELISA (FIG. 6B).
(§3) To test for TAR binding by the isolated β2-β3 loop sequence, we first fused this short peptide to SUMO (Small Ubiquitin-like Modifier). […] Arg-to-Ala mutants were then tested.
(§4) SUMO is 12 kDa protein that expresses well in E. coli and stabilizes a variety of diverse fusion proteins. A β2-β3 loop peptide comprising the sequence L^41-to-F^59—or mutants thereof—was fused to a flexible GGS linker at the SUMO C-terminus, and RNA binding was measured by ELISA. […] Stapling was accomplished by inserting nucleophiles using L44C and F56C mutations. Following treatment with a reducing agent (DTT), chemical cyclization was achieved by SNAr conjugation using polyfluorinated biarylsulfoxide; β2-β3 loop peptides with R-to-A mutations were prepared similarly. […]

[2] = test system: U1hpII; test: SPR binding to U1hpII; conditions: FIG. 4D
Text: FIG. 4A-F depict the TBP evolution screen.

[3] = test system: HIV TAR; test: ELISA RNA binding of SUMO fusion proteins, HIV TAR; set-up: species or system HIV-1
Text: as §1, §2, §3, §4

[4] = test system: TAR; conditions: FIG. 4D
Text: (A) Yeast display platform to identify U1A-derived proteins that bind TAR. […] (C) ELISA data depicting binding between evolved proteins and TAR. […] (E) Sequences of TAR mutants used to elucidate TBP6.6 and TBP 6.7 binding selectivity. (F) ELISA data showing relative affinities between TBP6.6 or TBP6.7.

[5] = test system: U1hpII; test: ELISA RNA binding of SUMO fusion proteins, U1hpII
Text: as §1, §2, §3, §4

| Molecule | ELISA binding to BIV TAR [1] | SPR recognition of U1hpII [2] | ELISA binding to HIV TAR [3] | SPR recognition of TAR [4] | ELISA binding to U1hpII [5] |
| --- | --- | --- | --- | --- | --- |
| U1A: parental RRM protein, starting protein whose native target is U1hpII | did not interact with BIV or HIV TAR | tightly binds U1hpII | did not interact with BIV or HIV TAR | does not bind TAR | highest relative level of binding; also recorded: binds U1hpII |
| B1 | no appreciable RNA binding; also recorded: does not bind |  | does not have appreciable TAR binding; also recorded: no appreciable RNA binding; also recorded: does not bind |  | no appreciable RNA binding; also recorded: does not bind |
